In general, IC50 refers to the point on the concentration scale where inhibition reaches its midpoint.

Data on 1 compound can be found in patent US20240082238A1, “COMPOSITIONS AND METHODS FOR TREATING CANCER” (UNIVERSITY OF IOWA RESEARCH FOUNDATION, priority 2021, published 2024).

Structures are written as SMILES.

One data set concerns caspase 9. Nature of the data set: Caspase multiplex activity assay, caspase 9. In kind it is cell-based, human. To be noted: 24 h. As for the experimental part:
Apoptosis and caspase activity. The expression of caspase 3, 8, and 9 was measured using Multiplex Activity Assay Fluorometric Kit (Cat. No. ab219915, Abcam). Briefly, Hec50co cells were plated in 96-well plates at a density of 3000 per well in 100 μL of the complete medium and incubated for 24 hours. After incubation, the medium was removed, and different concentrations either in single or combination of treatments were added (PTX 5 and 10 nM; CIP2b 10, 25, and 50 μM). Cells with treatments were incubated for 24 or 72 hours. Then, the caspase kit reagents were added to the cells and incubated at room temperature for 60 minutes. Fluorescence intensity (at excitation/emission values of 535/620 nm, 490/525 nm, and 370/450 nm for caspase 3, 8, and 9, respectively) was then measured using a SpectraMax M5 microplate reader (Molecular Devices).

A further data set has as its system LLC-PK1-WT cells. Kind of data set: Cytotoxicity assay (MTS), LLC-PK1-WT cells. The data set is classed as cell-based, porcine. To be noted: Sus scrofa; PTX alone, 72 h. As for the experimental part:
(§1) Cytotoxicity assay. Hec50co cells were seeded at 1500 cells per well in 96-well plates for 24 h in a complete medium. Later, the medium was removed and PTX, CIP2b, or CIP (all dissolved in DMSO and diluted in complete medium) were added to cells as either monotherapies or in combinations, and the plates were incubated for 72 hours. Then, the complete medium was removed and MTS reagent in the complete medium was added to wells, and the plates were incubated for 1-4 hours according to the manufacturer's protocol. Finally, the absorbance was recorded at 490 nm using a Spectra Max plus 384 Microplate Spectrophotometer (Molecular Devices, Sunnyvale, CA). Percentage cell viability was expressed as the average absorbance of the test group relative to that of the control group (untreated cells). The concentration that inhibits proliferation of 50% of cells compared to control (IC50) was calculated using GraphPad Prism (La Jolla, CA). Synergism was detected following the Chou-Talalay method (CI<1 indicates synergism) (Chou T C. Cancer research. 2010; 70(2):440-6, doi: 10.1158/0008-5472.CAN-09-1947) using CompuSyn software (Ver. 1.0).
P-gp efflux transporter. Overexpression of the MDR1 gene, reflected in the abundance of the P-gp efflux pump, is one of the major reasons for PTX chemoresistance in cancer. In this study, LLC-PK1-WT and LLC-PK1-MDR1 cell lines were used. […]

Data set [1] can be described thus: Cytotoxicity assay (MTS) and bright-field microscopy, LLC-PK1-MDR1 cells. The data set is classed as cell-based, porcine. To be noted: pig, LLC-PK1-MDR1 cells (overexpressing P-gp), PTX alone, maximum concentration used 50 nM. As for the experimental part:
as §1, with “The concentration that inhibits proliferation of 50% of cells compared to control (IC50) was calculated using GraphPad Prism (La Jolla, CA).” left out, “1.0). P-gp efflux transporter. Overexpression of the MDR1 gene, reflected in the abundance of the P-gp efflux pump, is one of the major reasons for PTX chemoresistance in cancer. In this study, LLC-PK1-WT and LLC-PK1-MDR1 cell lines were used. MTS assay and the PTX intracellular accumulation experiment were performed as previously described above.” for “1.0).”

In the case of `CC(=O)O[C@H]1C(=O)[C@@]2(C)[C@H]([C@H](OC(=O)c3ccccc3)[C@]3(O)C[C@H](OC(=O)[C@H](O)[C@@H](NC(=O)c4ccccc4)c4ccccc4)C(C)=C1C3(C)C)[C@]1(OC(C)=O)CO[C@@H]1C[C@@H]2O` [PTX, paclitaxel], the “expression of caspase 9 vs untreated” value in the data set with caspase 9 (5 nM PTX) is recorded as “not statistically different from untreated cells”. Moreover, in the data set on caspase 9 (10 nM PTX), the “level of caspase 9 expression vs untreated” value was “significantly higher”. Moreover, in the data set on LLC-PK1-WT cells, the half-inhibitory concentration (IC50) worked out at 21.3 nM. For the same compound, the 50% inhibitory concentration (IC50) at 72 h in data set [1] was > 50 nM.
